In patent publication US4923882A, “Novel amine derivatives, salts thereof and an anti-ulcer agent containing the same” (Toyama Chemical Co., Ltd., priority 1982, dated 1990):
Read-outs that look alike come from different tables or passages of the source.

Assays:
gastric acid secretion [1] = experiment: Inhibitory effect on gastric acid secretion, pylorus ligation method (histamine); format: in vivo, Wistar strain rats; settings: Rattus norvegicus, read-out: Inhibition percentage (gastric acid secretion)
Procedure: Five to six Wistar strain rats (male, 190 to 230 g) per group were starved for 35 hours, after which each drug was orally administered, and after 2 hours, the pylorus of each rat was ligated under ether anesthesia. […] After 3 hours, each rat was killed, after which the cardiac portion was ligated, and the stomach was removed. After 1 ml of distilled water was injected into the stomach, the gastric juice was collected by centrifugation and its volume was measured. The acidity of the gastric juice was measured by titrating 1 ml of the gastric juice with a 0.1N aqueous sodium hydroxide solution, taking pH 7.0 as the end-point. Physiological saline was administered to a control group.
The inhibition percentage of gastric acid secretion was determined from the following equation: [formula]

[2] = system: isolated guinea pig atrium; experiment: Effect on isolated guinea pig atrium (histamine-induced heart rate); parameters: species or system Hartley guinea pig; settings: for Potency ratio: Cimetidine = 1; for IC50: right atrium, 5×10^-6 M histamine, 30° C., read-out: ID50 (the source's name)
Procedure: Hartley guinea pig (male, 300 to 400 g) was killed by blood-letting, immediately after which the heart was isolated, and the right atrium was separated in a Krebs-Henseleit solution and used as a preparation. […] The preparation was trained in a bath fluid, and after the heart rate became constant, 5×10^-6 M of histamine was administered. After the heart rate became constant, each drug was administered cumulatively.
The inhibition percentage was determined from the following equation: [formula] HRmin : heart rate before the administration of histamine HRmax : heart rate after the administration of histamine
HRx : heart rate at the time of the administration of each drug.
The number of experiments were five for each dose.

gastric acid secretion [3] = experiment: Inhibitory effect on gastric acid secretion, perfused stomach preparation of anesthetized rat (histamine stimulated); format: in vivo, Wistar strain rats; settings: intravenous; for ED100: Rattus norvegicus, cumulative, histamine 30 μg/kg/min, read-out: Dose for complete inhibition; for Duration: time from complete inhibition until pH of perfusate became 4
Procedure: (i) Perfused stomach preparation of anesthetized rat [according to M. N. Ghosh and H. O. Schild: Brit. J. Pharmacol. 13, 54 (1958)]
Wistar strain rats (male, 200 to 250 g) starved for 18 hours were anesthetized with urethane and then subjected to laparotomy, after which the forestomach region of the stomach of each rat was incised. The whole interior of the stomach was sufficiently washed with physiological saline, and the cut edges were sutured. A silicon tube was inserted into the stomach to a length of about 5 mm from the duodenum side and fixed. Subsequently, the stomach was perfused with physiological saline adjusted to a pH of about 10 with an aqueous sodium hydroxide solution at a constant rate (1 ml/min) through an oral sonde, and the change in pH of the perfusate which had flowed out through the silicone tube was continuously recorded. During the perfusion, histamine (30 μg/kg/min) was continuously injected, as an agent for stimulating gastric acid secretion, through the femoral vein at a rate of 0.3 ml/min. Each drug was intravenously administered when the acid secretion became almost constant (pH 3.3±0.2), and cumulatively administered when the inhibition of acid secretion at each dose reached a plateau.
The number of experiments was three for each dose.

Indomethacin ulcer = experiment: Anti-ulcer activity: Indomethacin ulcer; format: in vivo, Wistar strain rats; settings: for Potency ratio: Cimetidine = 1; for ED50: 5 h
Procedure: Six Wistar strain rats (male, 200 to 250 g) per group were starved for 24 hours, after which each drug was orally administered, and after 30 minutes, Indomethacin was injected subcutaneously at a dose of 30 mg/kg. After 5 hours, each rat was killed, and the stomach was removed and fixed with 3% formalin, after which the lengths of ulcers formed in the stomach was measured under the binocular stereoscopic microscope (10×), and the sum total of the lengths was taken as the ulcer index. To a control group was administered 0.5% Tween 80 physiological saline. The inhibition percentage was determined from the following equation: [formula]

[4] = system: Mepirizole-induced duodenal ulcer; experiment: Anti-ulcer activity: Mepirizole-induced duodenal ulcer; format: in vivo, Wistar strain rats; settings: for Potency ratio: Cimetidine = 1; for ED50: Rattus norvegicus, 18 h; for rats died: in mepirizole test
Procedure: (ii) Mepirizole-induced duodenal ulcer
A test was carried out according to the method of Okabe et al. [S. Okabe et al., Gastrcenterology, 80, 1241 (1981)].
Six Wistar strain rats (male, 200 to 250 g) per group were starved for 24 hours, after which each drug was orally administered, and after 30 minutes, mepirizole was injected subcutaneously at a dose of 200 mg/kg. After 18 hours, the stomach and duodenum were removed and fixed with 3% formalin, after which the areas and depths of the ulcers formed in the duodenum were measured under the binocular stereoscopic microscope (10×). The scores were given in 7 grades depending on the areas and depths of the ulcers, and the sum total of the scores was taken as the ulcer index. The scores were given as follows:
That is to say, the score is 0 at an ulcer area of 0 to 0.2 mm^2, 1 at 0.2 to 1.0 mm^2, 2 at 1 to 3 mm^2, 3 at 3 to 6 mm^2, 4 at 6 to 10 mm^2,5 at 10 mm^2 or more, the ulcer in the condition immediately before perforation is scored as 6, and the ulcer which had caused perforation is scored as 7.
(§1) To a control group was administered 0.5% Tween 80 physiological saline. The inhibition percentage was determined from the following equation: [formula]

[5] = system: Stress ulcer induced by water-immersion; experiment: Anti-ulcer activity: Stress ulcer induced by water-immersion; format: in vivo, Wistar rats; settings: for Potency ratio: Cimetidine = 1; for ED50: Rattus norvegicus, 15 h
Procedure: (iii) Stress ulcer induced by water-immersion
An experiment was carried out according to the method of Takagi et al. [K. Takagi et al., Jap.
Six Wistar rats (male, 230 to 280 g) per group were starved for 24 hours, after which each drug was orally administered. After 30 minutes, the rats were placed in stress cage, immersed in water at 23° C. to the depth of xiphoid, and allowed to stand therein for 15 hours. Thereafter, the stomach of each rat was removed and then fixed with 3% formalin, after which the areas of the ulcers formed were measured under the binocular stereoscopic microscope (10×), and the sum total of the areas was taken as the ulcer index. To a control group was administered 0.5% Tween 80 physiological saline.
The inhibition percentage was determined from the following equation: [formula]

Reserpine ulcer = experiment: Anti-ulcer activity: Reserpine ulcer; format: in vivo, Wistar strain rats; settings: oral
Procedure: An experiment was carried out according to the method of Adami et al. [E. Adami et al., Arch. int.
Ten Wistar strain rats (male, 180 to 200 g) per group were starved for 30 hours, after which each drug was orally administered, and after 1 hour, reserpine was injected subcutaneously at a dose of 10 mg/kg. After 18 hours, the stomach was removed and fixed with 3% formalin, and thereafter the lengths of the ulcers formed in the stomach were measured with callipers. The measured values were converted to the scores described below, and the sum total of the scores was taken as the ulcer index.
That is to say, 1 to 5 pin point ulcers are scored as 1, 6 or more pin point ulcers are scored as 2, ulcers of 1 mm or less in length are scored as 1, ulcers of 1 to 2 mm in length are scored as 2, ulcers of 2 to 4 mm in length are scored as 4, and ulcers of 4 mm or more in length are scored as 8.
as §1

[6] = Rattus norvegicus, oral, Indomethacin ulcer, read-out: ID50 (the source's name)
[7] = Rattus norvegicus, oral, read-out: Inhibition percentage
[8] = Rattus norvegicus, 10 mg/kg, oral, read-out: Inhibition percentage
[9] = oral, mepirizole-induced duodenal ulcer, read-out: ID50 (the source's name)
[10] = oral, water-immersion stress ulcer, read-out: ID50 (the source's name)
[11] = Rattus norvegicus, po, read-out: Inhibition percentage

CCc1ccc(C(O)CNC(=C[N+](=O)[O-])NCCSCc2cc(C)c(CN(C)C)s2)cc1 (stereo not shown) [compound 42, N-{2-[[5-(dimethylamino)methyl-4-methyl-2-thienyl]methylthio]ethyl}-N'-[2-(4-ethylphenyl)-2-hydroxyethyl]-2-nitro-1,1-ethenediamine]
inhibition in vivo at 1 mg/kg (gastric acid secretion [1]; oral, histamine 25 mg/kg s.c.): 57%
Potency ratio [2]: 14.1
IC50 [2]: 237 nM

O=[N+]([O-])C=C(NCCCOc1cccc(CN2CCCCC2)c1)NCC(O)c1ccc2c(c1)OCO2 (stereo not shown) [compound 17, N-[2-hydroxy-2-(3,4-methylenedioxyphenyl)ethyl]-2-nitro-N'-[3-(3-piperidinomethylphenoxy)propyl]-1,1-ethenediamine]
ED100 (gastric acid secretion [3]): 0.15 mg/kg
Duration (gastric acid secretion [3]): > 280 min
inhibition in vivo at 3 mg/kg (gastric acid secretion [1]; oral, histamine 25 mg/kg s.c.): 70%
Potency ratio [2]: 15.4
IC50 [2]: 218 nM

O=[N+]([O-])C=C(NCCCOc1cccc(CN2CCCCC2)c1)NCC(O)c1ccc(F)cc1 (stereo not shown) [compound 15, N-[2-(4-fluorophenyl)-2-hydroxyethyl]-2-nitro-N'-[3-(3-piperidinomethylphenoxy)propyl]-1,1-ethenediamine]
ED100 (gastric acid secretion [3]): 0.06 mg/kg
Duration (gastric acid secretion [3]): 180 min
inhibition in vivo at 1 mg/kg (gastric acid secretion [1]; oral, histamine 25 mg/kg s.c.): 77%
Potency ratio [2]: 15.4
IC50 [2]: 218 nM
Potency ratio (Indomethacin ulcer): 68.8
ED50 (Indomethacin ulcer; [6]): 0.4 mg/kg
inhibition in vivo at 0.3 mg/kg (Indomethacin ulcer; Rattus norvegicus, 0.3 mg/kg, oral, read-out: Inhibition percentage): 37%
inhibition in vivo at 1 mg/kg (Indomethacin ulcer; [7]): 88%
inhibition in vivo at 3 mg/kg (Indomethacin ulcer; [7]): 92%
inhibition in vivo at 10 mg/kg (Indomethacin ulcer; [8]): 98%
Inhibition percentage ([4]; 1 mg/kg, oral): 2%
Inhibition percentage ([4]; 3 mg/kg, oral): 29%
Inhibition percentage ([4]; 10 mg/kg, oral): 93%
Potency ratio [4]: 36.0
ED50 [4, 9]: 4.5 mg/kg
Inhibition percentage ([5]; 1 mg/kg, oral): 42%
Inhibition percentage ([5]; 3 mg/kg, oral): 69%
Inhibition percentage ([5]; 10 mg/kg, oral): 83%
Potency ratio [5]: 11.5
ED50 [5, 10]: 1.35 mg/kg

CN/C(=N/CCSCc1nc[nH]c1C)NC#N [Cimetidine, reference compound]
Duration (gastric acid secretion [3]): 16 min
inhibition in vivo at 10 mg/kg (gastric acid secretion [1]; po): 39%
inhibition in vivo at 30 mg/kg (gastric acid secretion [1]; po): 60%
inhibition in vivo at 90 mg/kg (gastric acid secretion [1]; po): 97%
Potency ratio [2]: 1
IC50 [2]: 3350 nM
ED50 (Indomethacin ulcer; Rattus norvegicus, po, read-out: ID50): 27.5 mg/kg
inhibition in vivo at 10 mg/kg (Indomethacin ulcer; [11]): 18%
inhibition in vivo at 30 mg/kg (Indomethacin ulcer; [11]): 50%
inhibition in vivo at 100 mg/kg (Indomethacin ulcer; [11]): 97%
Inhibition percentage ([4]; 100 mg/kg, oral): 43%
rats died ([4]; 100 mg/kg, oral): Two of six rats died
Inhibition percentage ([4]; 300 mg/kg, oral): 59%
rats died ([4]; 300 mg/kg, oral): Four of six rats died
ED50 ([4]; po, read-out: ID50): 162 mg/kg
Inhibition percentage ([5]; 10 mg/kg, oral): 22%
Inhibition percentage ([5]; 30 mg/kg, oral): 94%
ED50 ([5]; po, read-out: ID50): 15.5 mg/kg
Inhibition percentage (Reserpine ulcer; 100 mg/kg): 9.7%

CN(C)Cc1ccc(CSCCNC(=C[N+](=O)[O-])NCC(O)c2ccccc2F)o1 (stereo not shown) [compound 4, N-{2-[[5-(dimethylamino)methyl-2-furyl]methylthio]ethyl}-N'-[2-(2-fluorophenyl)-2-hydroxyethyl]-2-nitro-1,1-ethenediamine]
ED100 (gastric acid secretion [3]): 0.04 mg/kg
Duration (gastric acid secretion [3]): 220 min
inhibition in vivo at 3 mg/kg (gastric acid secretion [1]; oral, histamine 25 mg/kg s.c.): 75%
Potency ratio [2]: 14.9
IC50 [2]: 225 nM

CN(C)Cc1ccc(CSCCNC(=C[N+](=O)[O-])NCC(O)c2ccc(O)cc2)o1 (stereo not shown) [compound 3, N-{2-[[5-(dimethylamino)methyl-2-furyl]methylthio]ethyl}-N'-[2-hydroxy-2-(4-hydroxyphenyl)ethyl]-2-nitro-1,1-ethenediamine]
ED100 (gastric acid secretion [3]): 0.1 mg/kg
Duration (gastric acid secretion [3]): 155 min
Potency ratio [2]: 14.7
IC50 [2]: 228 nM
Potency ratio (Indomethacin ulcer): 8.1
ED50 (Indomethacin ulcer; [6]): 3.4 mg/kg
inhibition in vivo at 1 mg/kg (Indomethacin ulcer; [7]): 20%
inhibition in vivo at 3 mg/kg (Indomethacin ulcer; [7]): 51%
inhibition in vivo at 10 mg/kg (Indomethacin ulcer; [8]): 71%
Inhibition percentage ([4]; 1 mg/kg, oral): 12%
Inhibition percentage ([4]; 3 mg/kg, oral): 49%
Inhibition percentage ([4]; 10 mg/kg, oral): 97%
Potency ratio [4]: 55.9
ED50 [4, 9]: 2.9 mg/kg
Inhibition percentage ([5]; 1 mg/kg, oral): 12%
Inhibition percentage ([5]; 3 mg/kg, oral): 73%
Inhibition percentage ([5]; 10 mg/kg, oral): 83%
Potency ratio [5]: 9.0
ED50 [5, 10]: 1.72 mg/kg

CNC(=C[N+](=O)[O-])NCCSCc1ccc(CN(C)C)o1 [Ranitidine, reference compound]
ED100 (gastric acid secretion [3]): 0.5 mg/kg
Duration (gastric acid secretion [3]): 92 min
inhibition in vivo at 3 mg/kg (gastric acid secretion [1]; oral, histamine 25 mg/kg s.c.): 17%
inhibition in vivo at 10 mg/kg (gastric acid secretion [1]; 10 mg/kg, oral, histamine 25 mg/kg s.c.): 56%
inhibition in vivo at 30 mg/kg (gastric acid secretion [1]; 30 mg/kg, oral, histamine 25 mg/kg s.c.): 91%
Potency ratio (Indomethacin ulcer): 1.8
ED50 (Indomethacin ulcer; [6]): 15.5 mg/kg
inhibition in vivo at 10 mg/kg (Indomethacin ulcer; [8]): 18%
inhibition in vivo at 30 mg/kg (Indomethacin ulcer; Rattus norvegicus, 30 mg/kg, oral, read-out: Inhibition percentage): 98%
Inhibition percentage ([4]; 30 mg/kg, oral): 49%
Inhibition percentage ([4]; 100 mg/kg, oral): 78%
Potency ratio [4]: 5.1
ED50 [4, 9]: 32 mg/kg
Inhibition percentage ([5]; 3 mg/kg, oral): 7%
Inhibition percentage ([5]; 10 mg/kg, oral): 80%
Potency ratio [5]: 2.4
ED50 [5, 10]: 6.4 mg/kg
Inhibition percentage (Reserpine ulcer; 30 mg/kg): 33%
Inhibition percentage (Reserpine ulcer; 100 mg/kg): 40%
